Measured values: patent publication USRE35230E (priority 1994, dated 1996)

Legend:
[1] = system: (R)-oxynitrilase; assay: Relative rates of dehydrocyanation of cyanohydrins by soluble (R)-oxynitrilase (initial rate studies); type: biochemical; details: 0.21 mM cyanohydrin, dehydrocyanation relative to benzaldehyde cyanohydrin
Protocol: The following standardized assay was utilized to measure the activity of oxynitrilase set forth in the Examples which follow. A solution of enzyme was prepared in 0.1M (pH 5.5) citrate buffer. A 3-ml sample of enzyme solution was combined with 30 microliters of 0.21M benzaldehyde cyanohydrin and the rate of increase in absorbance at 250 nm recorded. Then, the same procedure was followed with a 3-ml sample of 0.1M (pH 5.5) citrate buffer to obtain the background, non-enzymatic, reaction. The activity in units/ml was calculated by subtracting the slope of the non-enzymatic reaction from the slope of the enzymatic reaction and converting the absorbance change with time to concentration change with time using a molar extinction coefficient of 13,200 M^-1 cm^-1.
Relative rates of dehydrocyanation of different cyanohydrins subjected to the action of the soluble catalyst (R)-oxynitrilase were determined from initial rate studies. A solution of (R)-oxynitrilase was combined with a 0.21 mM solution of cyanohydrin and the rate of increase of absorbance at the wavelength corresponding to the absorption maxima was monitored as described above in connection with the measurement of catalyst activity. The measured activity was calculated using the appropriate extinction coefficient for the corresponding aldehyde.

[2] = Permeability in supported-gas membrane system of FIG. 1; details: both dehydrocyanation products approximately equal
[3] = benzaldehyde cyanohydrin to benzaldehyde and hydrogen cyanide; cited from earlier work

SMILES | Relative Rate [1] | average permeability relative to the permeability of benzaldehyde cyanohydrin [2] | dehydrocyanation equilibrium constant [3] [mM]
Cc1ccc(C(O)C#N)cc1 (stereo not drawn) [P-Tolualdehyde cyanohydrin] | 0.45 |  | 
Cc1ccc(C(O)C#N)o1 (stereo not drawn) [5-Methylfurfural cyanohydrin] | 2.8 |  | 
COc1cccc(C(O)C#N)c1 (stereo not drawn) [m-Anisaldehyde cyanohydrin] | 0.19 |  | 
O=Cc1ccccc1 [benzaldehyde] |  | roughly 700 times | 
COc1ccc(C(O)C#N)cc1 (stereo not drawn) [p-Anisaldehyde cyanohydrin] | 0.17 |  | 
N#CC(O)c1ccccc1 (stereo not drawn) [Benzaldehyde cyanohydrin, reference compound] | 1.0 |  | 5
N#CC(O)C=Cc1ccccc1 (stereo not drawn) [Cinnamaldehyde cyanohydrin] | 0.05 |  | 
N#CC(O)c1ccco1 (stereo not drawn) [Furfural cyanohydrin] | 2.5 |  | 
CC=CC(O)C#N (stereo not drawn) [Crotonaldehyde cyanohydrin] | 0.90 |  | 
CCc1ccc(C(O)C#N)cc1 (stereo not drawn) [p-Ethylbenzaldehyde cyanohydrin] | 0.13 |  | 
N#CC(O)c1ccc2c(c1)OCO2 (stereo not drawn) [Piperonal cyanohydrin] | 2.1 |  | 
